Assay [1] deals with T1, human PYCR1 (Homo sapiens, UniProt P32322).
T1 sequence (P32322 1-300): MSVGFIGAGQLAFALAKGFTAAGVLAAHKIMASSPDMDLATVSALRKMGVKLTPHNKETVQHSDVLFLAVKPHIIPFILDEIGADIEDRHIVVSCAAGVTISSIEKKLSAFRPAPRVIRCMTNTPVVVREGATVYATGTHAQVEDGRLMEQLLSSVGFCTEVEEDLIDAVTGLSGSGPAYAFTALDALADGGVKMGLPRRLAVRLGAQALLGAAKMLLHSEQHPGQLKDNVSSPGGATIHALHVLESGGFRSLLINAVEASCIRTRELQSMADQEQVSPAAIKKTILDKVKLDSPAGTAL
The assay is described as follows: biochemical. The following applies: for Ki: competitive with P5C, NADH fixed 175 μM; for kcat: kcat for L-P5C at fixed NADH 175 μM, global fit of the data set with this analog. On the procedure:
(§1) Over two dozen proline analogs (Fig. 2) were screened using electron density from X-ray crystallography as the readout for binding to human PYCR1. […] Because the compounds bind in the P5C/proline site, the mechanism of inhibition was assumed to be competitive with P5C. Therefore, steady-state kinetic measurements were performed with L-P5C as the variable substrate (0-1000 μM) and NADH fixed (175 μM) (Fig. 3). For each compound, the data were fit globally to a competitive inhibition model (Equation 1) to obtain an inhibition constant, Ki.
B, THFA. C, CPC. D, T4C. E, T2C. F, NFLP. The data were measured in 50 mM Tris (pH 7.5) with 1 mM EDTA disodium salt while holding NADH fixed at 175 μM and varying D,L-P5C (0–2000 μM). The concentration of the substrate L-P5C was considered to be half the total D,L-P5C concentration added to the assays. Curves represent global fits of the data to a competitive inhibition model showing initial velocity in units of µM [NAD^+] s^−1 as a function of L-P5C concentration (µM).
A C-terminal truncation variant of human PYCR1, which includes residues 1–300 of the full-length 319-residue enzyme, was used for kinetics and X-ray crystallography ([18]). PYCR1 was overexpressed in Escherichia coli BL21 (DE3) competent cells and purified using methods similar to those previously reported ([18]). Harvested cells were lysed via sonication in a mixture containing DNase I, lysozyme, and 0.2 mM phenylmethylsulfonyl fluoride protease inhibitor, and then the insoluble material was removed via centrifugation at 16,000 rpm for 1 h at 4°C. The resulting lysate was purified by gravity-flow chromatography on a column containing Ni^2+–nitrilotriacetic acid resin (Qiagen) pre-equilibrated with binding buffer consisting of 50 mM HEPES, 300 mM NaCl, 10 mM imidazole, and 5% (w/v) glycerol at pH 7.8 (buffer A). The column was washed with buffer A supplemented with 30 mM imidazole, and then the bound protein was eluted with buffer A supplemented with 300 mM imidazole. Elution fractions containing PYCR1 were identified by SDS-PAGE and prepared for further purification by size-exclusion chromatography by dialyzing into 300 mM NaCl, 2% (w/v) glycerol, and 50 mM HEPES at pH 7.5. Size-exclusion chromatography was performed on a HiLoad 16/600 Superdex 200 column equilibrated with 50 mM HEPES, pH 7.8, 300 mM NaCl, and 5% (w/v) glycerol. Purified PYCR1 was concentrated to 8 mg/ml and stored at 4°C for subsequent crystallization trials.
Kinetic measurements were performed in a BioTek Epoch 2 microplate spectrophotometer using Corning 96-well UV-transparent microplates. Activity assays were performed by monitoring the consumption of NADH at 340 nm (ε340 = 6220 M^−1 cm^−1) using P5C as the substrate. D,L-P5C was synthesized as described previously ([45]), quantified using o-aminobenzaldehyde (o-AB), and stored in 1 M HCl at 4°C. Neutralization of D,L-P5C to pH 7.5 was performed immediately prior to assays using 1 M Tris (pH 7.5) and 6 M NaOH. The concentration of the substrate L-P5C was assumed to be half the total D,L-P5C concentration added to the assays.
The following microplate protocol was employed. Substrate mixtures containing P5C, NADH, EDTA, and Tris buffer were prepared in a deep well block for each P5C concentration. Mixtures containing enzyme and various concentrations of the inhibitor were prepared in microcentrifuge tubes and incubated on ice in buffer containing 50 mM HEPES pH 7.8, 300 mM NaCl, and 5% (w/v) glycerol. The final concentration of PYCR1 in the assay was 6.25 nM. Twenty μl of the enzyme-analog mixture was added to microplate wells using a single-channel pipette, and then the reaction was initiated by addition of 180 μl of the substrate mixtures using a multi-channel pipettor. The reaction traces were followed for 35 min.

For assay [2], the target named is T1, human PYCR1. The assay is described as follows: In crystallo screening: electron density as readout for binding (crystal soaking). Set-up: includes residues 1–300 of the full-length 319-residue enzyme; inferred from the Ni-NTA purification; made in house; host or cells: Escherichia coli BL21 (DE3). The note with it: apo crystals soaked with 25–500 mM of the proline analog. The procedure: as §1
06594), D,L-thiazolidine-2-carboxylate (Sigma-Aldrich no. 467995), L-thiazolidine-4-carboxylate (Sigma-Aldrich no. T27502), 1,3-thiazolidine-2,4-dicarboxylate (Sigma-Aldrich no. CDS000186), dimethyl 1,3-thiazolidine-2,4-dicarboxylate (Sigma-Aldrich no. […] 287067), L-4-hydroxyproline methyl ester (hydrochloride) (Sigma-Aldrich no. 30681), cis-4-hydroxy-D-proline methyl ester (hydrochloride) (Sigma-Aldrich no. […] 441562), L-(+)-mandelic acid (Sigma-Aldrich no. 63460), sodium-L-lactate (Sigma-Aldrich no. 71718), D-cycloserine (Sigma-Aldrich no. C6880). The proline analogs were added to apo crystals during cryoprotection by soaking the crystals in the reservoir solution supplemented with cryoprotectant (PEG 200 for the PEG 3350 form; glycerol for the NaCl form) and then in the same cryobuffer supplemented with 25–500 mM of the proline analog. Following equilibration, the crystals were harvested and rapidly plunged into liquid nitrogen.
The complex of PYCR1 with THFA was obtained by soaking a C2 crystal (NaCl form) for 15 min in a cryo-buffer consisting of the reservoir solution (3 M NaCl and 0.1 M HEPES at pH 7.5–8.0) supplemented with 30% glycerol and 50 mM THFA, followed by flash-cooling in liquid nitrogen. Crystals of the NFLP complex were prepared by soaking P2_12_12 crystals in the reservoir solution (250 mM Li2SO4, 19% (w/v) PEG 3350, 0.1 M HEPES, pH 7.5) supplemented with 20% (v/v) PEG 200 and 100 mM NFLP. The complexes with L-T2C and L-T4C were prepared similarly, except the Li2SO4 concentration was reduced to 25 mM and 50 mM of either L-T4C or D,L-T2C was included.

A further assay relates to PYCR1. Set-up: method as in PMID 31362921. The following applies: reported IC50 against PYCR1; cited from earlier work.
Setting [3] is: Ki, 50 mM Tris pH 7.5, global fit.

Values joined by “and” are separate entries in the source; they are usually repeats but may differ in a detail not shown here. Identical values can stand only once.

Turning to `CC(=O)N1CCC[C@H]1C(=O)O` [N-acetyl L-proline], the “inhibition of PYCR1 (in words)” value against human PYCR1 [1] was “did not inhibit PYCR1”.

In the case of `O=C(O)[C@@H]1CCCO1` [THFA, (S)-(−)-tetrahydro-2-furoic acid], the “electron density evidence for binding (in words)” value (from here on “electron density evidence”) at human PYCR1 [2] is reported as “Electron density evidence for binding was observed”. For the same compound, on human PYCR1 [1], the “inhibition of PYCR1 (in words)” value is on record as “only negligibly inhibits PYCR1” and the catalytic constant (kcat) turned out to be 69 ± 1 s⁻¹. Moreover, the inhibition constant Ki on human PYCR1 [1] (Ki (estimated), rounded values) was > 1000 µM and 2000 µM. Further, the affinity on human PYCR1 [1] (setting [3]) corresponds to a Ki of 2250 ± 121 µM.

For the compound `C#CCN(C)Cc1ccccc1` [pargyline], the IC50 in the assay on PYCR1 was 200 µM.

For `O=C(O)[C@@H]1CSCN1` [L-T4C, L-thiazolidine-4-carboxylate], the “electron density evidence” value at human PYCR1 [2] was “Electron density evidence for binding was observed”. For the same compound, the inhibitory constant (Ki) at human PYCR1 [1] (Ki (estimated), rounded values) is ~600 µM; on human PYCR1 [1] (setting [3]), 598 ± 39 µM. At human PYCR1 [1], the kcat amounted to 54 ± 2 s⁻¹.

Take `O=C(O)C1NCCS1` [L-T2C, L-thiazolidine-2-carboxylate]: on human PYCR1 [2], the “electron density evidence” value was “Electron density evidence for binding was observed”. For the same compound, the Ki on human PYCR1 [1] (Ki (estimated), rounded values) was ~400 µM; on human PYCR1 [1] (setting [3]), 438 ± 29 µM. Also, the kcat on human PYCR1 [1] is 37 ± 1 s⁻¹.

As to `O=C(O)C1CCCC1` [CPC, cyclopentanecarboxylate], the inhibition constant (Ki) is > 1000 µM and 1000 µM at human PYCR1 [1] (Ki (estimated), rounded values); 1190 ± 61 µM on human PYCR1 [1] (setting [3]). Also, the kcat at human PYCR1 [1] came out at 35 ± 1 s⁻¹.

Usually Ki stands for a measure of affinity in units of concentration, obtained from inhibition or displacement. What is called kcat is the number of substrate molecules converted per active site and unit of time at saturation. The IC50 is the concentration that gives 50% inhibition.

These data come from publication PMC7939384, “In crystallo screening for proline analog inhibitors of the proline cycle enzyme PYCR1” (The Journal of Biological Chemistry, 2021).
